Assay results reported in patent US8173673B2, “Biofilm-inhibiting effect and anti-infective activity of N,C-linked aryl isoquinolines and the use thereof” (Julius-Maximilians-Universitaet Wuerzburg, priority 2006, dated 2012).
Read-outs that look alike come from different tables or passages of the source.

Key:
Format in all cases: cell-based
[1] = tested on: Leishmania major-promastigotes (MHOM/IL81/FE/BNI); assay: Alamar Blue activity test against Leishmania major promastigotes
Protocol: Leishmania major-promastigotes (MHOM/IL81/FE/BNI) were cultivated in blood agar-cultures at 26° C., 5% CO2, and 95% humidity. For the experiment, the promastigotes were washed twice with saline phosphate buffer (PBS) and subsequently suspended (10^8 cells/ml) in Click-RPMI-1640-medium without phenol red, spiked with 10% FCS, 2 mM L-glutamine, 1.0 mM HEPES-buffer, pH 7.2, 100 μg/ml penicillin, […] gentamycin, 7.5% NaHCO3 and 50 μM 2-mercaptoethanol (culture medium). For the determination of activity, 200 μl of the promastigote-suspension in microtiter plates were each incubated with the compounds in a geometric series of dilutions for 24 hours at 26° C., 5% CO2, and 95% humidity. Subsequently, 20 μl Alamar Blue (Trinova Biochem, Gieβen, Germany) were added to each of the microcultures, and the cultures were incubated further. Cultures that only contained medium and the compound, or only cellular suspension (without compound), served as controls. The optical density was measured after another 24 hours with an ELISA-reader at the wave lengths 550 nm and 630 nm. The IC50-values of the compounds were calculated through linear interpolation (J. Mikes, D. Steverding. Parasitol. Int. 2000, 48, 265-269).
Macrophages of the cell line J774.1 were washed and suspended in culture medium ([…]. For the test, 200 μl of the cell suspension and the compounds were pipetted in a geometric series of dilutions into cultures on microtiter plates. Following 24 hours of incubation at 37° C., 5% CO2, and 95% humidity, 20 μl Alamar Blue were added to each micro-culture, and the microtiter plate was incubated further. Micro-cultures with medium and the compound as well as micro-cultures that only contained cellular suspension (without compound), served as controls. The optical density was measured after 24, 48, and 72 hours with an ELISA-reader at the wavelengths 550 nm and 630 nm. The IC50-values of the compounds were calculated using linear interpolation. Amphotericin B served as a reference compound and positive control. […]

[2] = tested on: Trypanosoma brucei brucei strain TC-221; assay: Alamar Blue anti-trypanosome test, bloodstream forms
Protocol: Bloodstream-forms of the strain TC-221 of Trypanosoma brucei brucei were cultivated in enriched Baltz-culture medium in an atmosphere von 5% CO2 at 37° C. For activity determinations, a defined number of pathogens (10^4 trypanosomes per ml) were incubated in 96-well-plates with the compounds in different concentrations for 48 to 72 hours. The effect of the drugs was quantifiable using the ED50-values with linear interpolation. The trypanocidal activity of the test compounds was determined through measuring absorption on an MR 700 microplate reader (test wavelength 550 nm, reference wavelength 630 nm) by means of Alamar Blue®, an indicator of metabolic cellular functions. The addition of the dye took place 24 hours after starting the incubation. The color change of Alamar Blue® as used in this absorption measurements is based on reduction processes involving NADH or NADH-dependent enzymes. Incubation times and the concentrations of dye as required correlate with the metabolic activities of the trypanosomes. The MIC-value (minimum inhibitory concentration) was determined microscopically through counting of living cells in Neubauer-counting chambers. Suramine Na served both as positive control and reference.
The anti-trypanosomal activities of the compounds of the general structures 1-3 were studied based on a series of examples according to the above-described methods. The therapeutic index is the ratio of the cytoxicity (J774.1 macrophages) to the activities against Trypanosoma brucei brucei.

[3] = tested on: Plasmodium falciparum strain K1; assay: [3H]-hypoxanthine-inclusion-test, anti-plasmodium activity
Text: For the determination of the anti-plasmodium activities, cultures of Plasmodium falciparum strain K1 (resistant against chloroquine and pyrimethamine) were used. A modification (R. G. Ridley, W. Hofheinz, if Matile, C. Jacquet, A. Dorn, R. Masciadri, S. Jolidon, W. F. Richter, A. Guenzi, M. A. Girometta, H. Urwyler, W. Huber, S. Thaitong, W. Peters, Antimicrob. Agents Chemother. 1996, 40, 1846-1854) of the [^3H]-hypoxanthine-inclusion-test (R. E. Desjardins, C. J. Canfield, D. Haynes, J. Chulay, Antimicrob. Agents Chemother. 1979, 16, 710-718) was used. Human red blood cells infected with P. falciparum (0.3% infection) at a hematocrit of 2.5% (volume fraction of the red blood cells) in RPMI 1640 medium with the serum replacement Albumax II (5 g/L) were incubated with serial dilutions of the drugs in microtiter plates for 48 hours at 37° C. under a CO2-enriched and O2-reduced atmosphere. Then, 0.5 μCi [^3H]-hypoxanthine were added to each well of the microtiter plate, and after a further 24 hours of incubation time the wells were harvested with a Betaplate Cell Harvester onto glass fiber filters, and lysed with distilled water. The incorporation of radio-labeled hypoxanthine (which correlates with the quantity of living parasites) was determined using a scintillation counter. The IC50 value was determined from sigmoidal inhibition curves. The tests were performed in duplicate, and repeated at least once. Parasite cultures without additive served as control (100% incorporation), cultures with a dilution series of chloroquine served as positive control.
(§1) The anti-plasmodia activities of the compounds of the general structures 1-3 were studied based on a series of examples according to the above-described methods. The therapeutic index is the ratio of the IC50 values for rat myoblasts (L-6-cells=cytotoxicity) to the IC50 values for Plasmodium falciparum.

[4] = tested on: rat myoblasts (L-6-cells); assay: Cytotoxicity on rat myoblasts (L-6-cells); conditions: result in words
Text: as §1

[5] = Trypanosoma brucei, T. brucei brucei TC-221, after 48 h, read-out: ED50 (μM) after 48 h
[6] = Trypanosoma brucei, T. brucei brucei TC-221, after 72 h, read-out: ED50 (μM) after 72 h
[7] = P. falciparum strain K1 (resistant against chloroquine and pyrimethamine), read-out: IC50

SMILES: C[C@@H]1[C@H](O)[C@@H](C)/C=C/C=C/C=C/C=C/C=C/C=C/C=C/[C@H](O[C@@H]2O[C@H](C)[C@@H](O)[C@H](N)[C@@H]2O)C[C@@H]2O[C@](O)(C[C@@H](O)C[C@@H](O)[C@H](O)CC[C@@H](O)C[C@@H](O)CC(=O)O[C@H]1C)C[C@H](O)[C@H]2C(=O)O [Amphotericin B, reference compound]
- IC50 [1]: 2510 nM

SMILES: COc1cc(OC)c2c(C)[n+](-c3ccc(C)cc3)c(C)cc2c1 [B]
- IC50 [1]: 2450 nM

SMILES: COc1cc2c(c(OC)c1)C(C)=[N+](c1cccc3ccccc13)[C@@H](C)C2 [Compound 2a, (3S)—N,1′-naphthyl-6,8-dimethoxy-1,3-dimethyl-3,4-dihydroisoquinolinium-trifluoro-acetate]
- EC50 [2, 5]: 0.39 µM
- EC50 [2, 6]: 0.356 µM

SMILES: COc1cc(OC)c2c(C)[n+](-c3ccc(C(C)C)cc3)c(C)cc2c1 [D]
- IC50 [1]: 850 nM

SMILES: COc1cc(OC)c2c(C)[n+](-c3ccccc3OC)c(C)cc2c1 [E]
- EC50 [2, 5]: 0.383 µM
- EC50 [2, 6]: 0.323 µM

SMILES: COc1ccc(-[n+]2c(C)cc3cc(OC)cc(OC)c3c2C)c(OC)c1 [F]
- EC50 [2, 5]: 0.325 µM
- EC50 [2, 6]: 0.311 µM

SMILES: COc1cc(OC)c2c(C)[n+](-c3ccc(Cl)cc3)c(C)cc2c1 [G]
- IC50 [3, 7]: 56 nM

SMILES: COc1cc(OC)c2c(C)[n+](-c3ccc(C(F)(F)F)cc3)c(C)cc2c1 [H]
- IC50 [3, 7]: 282 nM

SMILES: COc1cc(OC)c2c(C)[n+](-c3ccc(NC(C)=O)cc3)c(C)cc2c1 [I]
- cytotoxicity [4]: without a detectable cytotoxicity
- IC50 [3, 7]: 211 nM

SMILES: Cc1ccc(C(=O)Nc2ccc(S(=O)(=O)O)c3cc(S(=O)(=O)O)cc(S(=O)(=O)O)c23)cc1NC(=O)c1cccc(NC(=O)Nc2cccc(C(=O)Nc3cc(C(=O)Nc4ccc(S(=O)(=O)O)c5cc(S(=O)(=O)O)cc(S(=O)(=O)O)c45)ccc3C)c2)c1 [Suramin Na, reference compound]
- EC50 ([2]; T. brucei brucei TC-221, after 48 h, read-out: ED50 (μM) after 48 h): 0.31 µM
- EC50 ([2]; T. brucei brucei TC-221, after 72 h, read-out: ED50 (μM) after 72 h): 0.32 µM

SMILES: CCN(CC)CCCC(C)Nc1ccnc2cc(Cl)ccc12 (stereo not shown) [chloroquine, reference compound]
- IC50 ([3]; K1): 119 nM
